This note sets out measurements from patent US20100035311A1, “METHOD AND COMPOSITION FOR ENZYME STORAGE” (priority 2006, published 2010).

Where “and” joins values, the source holds several entries; their conditions need not be identical. Identical values can stand only once. Like-named read-outs stand apart in the source and are kept apart here.

Data set [1] relates to Medicago truncatula hydroperoxide lyase CYP74C3 (HPLF), recombinant, wild type, N-terminal histidine-tagged. Particulars: for Km / kcat: pH 6.5, 25° C.; for Km / affinity, fold change on detergent removal (Km higher) / kcat, fold difference (detergent-buffer higher than detergent-free): detergent-buffer vs detergent-free; for catalytic efficiency (kcat/Km) of detergent-free enzyme as % of enzyme purified without detergent removal: detergent-free vs detergent-buffer; for kcat as % of kcat with 13α-HPOT: purified in detergent-buffer.

For data set [2], the system named is CYP74C3. The settings on record: for Spin state of the haem iron after ligand or detergent binding: pH 6.5. The procedure:
(a) UV/Visible spectra of ligand-bound forms of oxidised native CYP74C3 (2 μM, ? ); KCN (100 mM, ——); imidazole (50 mM, ---------); DMPhP (250 mM, —[…] […]—). The spectrum of dithionite (50 mM) reduced CYP74C3 (2 μM) before ([…]) and after (—[…]—) reaction with CO (˜1 mM) are also shown. […] (c) Stopped-flow diode array spectral changes over a period of 200 s for cyanide (100 mM) binding to native oxidised CYP74C3 (2 μM).
Spectra and steady-state kinetic analyses were performed using a dual beam scanning Shimadzu UV/Visible spectrophotometer (Model UV-1601, Shimadzu, Milton Keynes, U.K.). […] Stopped flow-UV/Visible data were analysed with the KineticAsyst 3.0 software package (Hi-Tech Scientific). Ligand-binding studies were carried out with both the native oxidised and the dithionite ion reduced forms of CYP74C3.

Data set [3] deals with CYP74C3. The procedure: (a) Dose response curve for reactivation of detergent-free CYP74C3 with the detergent Emulphogene. Detergent-free CYP74C3 was incubated with an equal volume of 100 mM sodium phosphate buffer, pH 6.5 or containing detergent (0.01-10.24 mM Emulphogene) for 15 min on ice. Samples (1.2 pmol) were then assayed for HPL activity in the standard assay with 20 μM 13α-HPOT; (b) Plot of predicted micelle concentration versus activity for calculation of Kd for Emulphogene binding and (c) Fit of velocity-substrate curves to one-site saturation model in SigmaPlot for detergent-free CYP74C3 (1.0 pmol, ∘---∘), CYP74C3 purified in detergent-buffer (0.5 pmol, ∘—∘) and detergent-free CYP74C3 after reactivation with 5 mM Emulphogene (0.5 pmol, ▾—▾). […] Error bars are the means±standard errors of at least six determinations on two different enzyme preparations.
Substrate specificity was determined by comparing kcat/Km.

Data set [4] addresses T1, CYP74A1 (Arabidopsis thaliana, UniProt Q96242).
T1 sequence (Q96242 with tags, fused parts or gaps): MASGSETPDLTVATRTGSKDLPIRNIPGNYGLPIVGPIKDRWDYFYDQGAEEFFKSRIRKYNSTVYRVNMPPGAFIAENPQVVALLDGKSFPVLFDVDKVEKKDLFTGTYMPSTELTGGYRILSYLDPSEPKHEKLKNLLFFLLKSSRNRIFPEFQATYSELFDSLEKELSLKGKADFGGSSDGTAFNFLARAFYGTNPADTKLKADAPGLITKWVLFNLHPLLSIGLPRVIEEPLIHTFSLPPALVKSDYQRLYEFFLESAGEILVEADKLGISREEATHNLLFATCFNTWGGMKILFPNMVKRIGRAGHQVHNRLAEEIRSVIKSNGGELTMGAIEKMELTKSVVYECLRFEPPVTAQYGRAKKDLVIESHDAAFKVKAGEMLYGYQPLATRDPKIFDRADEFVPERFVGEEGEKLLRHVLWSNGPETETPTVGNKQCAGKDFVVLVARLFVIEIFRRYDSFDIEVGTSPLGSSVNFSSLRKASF
Particulars: pH 6.5.

The format of data set [5] is physicochemical. The source says:
The following table provides a summary enzyme stability studies conducted on HPL and AOS enzymes, subjected to either freeze drying or speedvac drying, in the presence or absence of detergent. What is reported here is the degree to which enzyme activity is lost based on the storage condition. […] Subsequent re-hydration of each dried enzyme and spectroscopic analysis was used to determine the stability of the thus-treated enzymes. FIG. 11 provides stability over time information for the thus stored enzymes showing stability for at least ten weeks. UV/Vis spectra of detergent-free preparations of CYP74C3 (HPLF), CYP74A1 (AOS) and Pepper HPL were determined before and after freeze drying, as well as before and after drying in a speedvac. […] The UV/Vis spectra of preparations of CYP74C3 (HPLF), CYP74A1 (AOS) and Pepper HPL in the detergent triton before and after freeze drying were further determined. The UV/Vis spectra of these preparations were used to determine the percentage loss of protein resulting from freeze drying, or drying in a speedvac and the results are summarised in the following table.

The target in data set [6] is T1, CYP74A1.
The mark [7] stands for this setting: +Detergent (purified in detergent-buffer).
[8] abbreviates: Reactivated with 5 mM Emulphogene.

A word on the kcat/Km: it is the second-order rate constant that governs catalysis at low substrate concentration. The Km is the substrate concentration at which the rate is half of its maximum. Broadly, the kcat is the number of substrate molecules converted per active site and unit of time at saturation. `CCCCC/C=C\C=C\[C@H](CCCCCCCC(=O)O)OO` [9α-HPOD]: in data set [1] (setting [7]), the “Substrate specificity (% 13α-HPOT), from kcat/Km” value came to 8%; the specificity constant (kcat/Km) came out at 1.29e+07 M⁻¹ s⁻¹; the Michaelis constant (Km) was 15.3 ± 1.4 µM; the kcat was 197 ± 6 s⁻¹. Further, in data set [1] (Detergent-free), the “Substrate specificity (% 13α-HPOT), from kcat/Km” value is listed as 16%; the specificity constant (kcat/Km) was found to be 500000 M⁻¹ s⁻¹; the Km is 84.5 ± 10.1 µM; the kcat is 44 ± 2 s⁻¹. Besides, in data set [1] (setting [8]), the “Substrate specificity (% 13α-HPOT), from kcat/Km” value came out at 5%; the kcat/Km was found to be 7.2e+06 M⁻¹ s⁻¹; the Km worked out at 25.8 ± 2.2 µM; the kcat turned out to be 185 ± 7 s⁻¹. Besides, in data set [1], the “Km / affinity, fold change on detergent removal (Km higher)” value (“Km / affinity, fold change” for short) was determined as 6 fold; the “kcat, fold difference (detergent-buffer higher than detergent-free)” value was found to be 5 fold; the “catalytic efficiency (kcat/Km) of detergent-free enzyme as % of enzyme purified without detergent removal” value is 4%; the “kcat as % of kcat with 13α-HPOT” value is reported as 38%.
For the molecule `CC/C=C\C/C=C\C=C\[C@H](CCCCCCCC(=O)O)OO` [9α-HPOT, 9-S-hydroperoxy-10E,12Z,15Z-octadecatrienoic acid], in data set [1] (setting [7]), the “Substrate specificity (% 13α-HPOT), from kcat/Km” value came to 0.4%; the kcat/Km is 600000 M⁻¹ s⁻¹; the Km came to 39.1 ± 7.2 µM; the kcat is 24 ± 2 s⁻¹. In addition, in data set [1] (Detergent-free), the “Substrate specificity (% 13α-HPOT), from kcat/Km” value turned out to be 3%; the kcat/Km was 100000 M⁻¹ s⁻¹; the Km came to 81.6 ± 9.7 µM; the kcat is 8 ± 0 s⁻¹. In addition, in data set [1] (setting [8]), the “Substrate specificity (% 13α-HPOT), from kcat/Km” value turned out to be 0.4%; the kcat/Km worked out at 600000 M⁻¹ s⁻¹; the Km came out at 51.7 ± 4.4 µM; the catalytic constant (kcat) amounted to 30 ± 1 s⁻¹. For the same molecule, in data set [1], the “Km / affinity, fold change” value is 2 fold; the “kcat, fold difference (detergent-buffer higher than detergent-free)” value came out at 3 fold; the “catalytic efficiency (kcat/Km) of detergent-free enzyme as % of enzyme purified without detergent removal” value is reported as 17%; the “kcat as % of kcat with 13α-HPOT” value amounted to 5%.
With `CCCCC[C@@H](/C=C/C=C\CCCCCCCC(=O)O)OO` [13α-HPOD, 13-S-hydroperoxyoctadeca-9Z, 11 E-dienoic acid], in data set [1] (setting [7]), the “Substrate specificity (% 13α-HPOT), from kcat/Km” value is 23% and 19%; the catalytic efficiency (kcat/Km) was 3.5e+07 M⁻¹ s⁻¹; the Km amounted to 10.3 ± 2.1 µM; the kcat was 361 ± 19 s⁻¹. Besides, in data set [1] (Detergent-free), the “Substrate specificity (% 13α-HPOT), from kcat/Km” value is reported as 19%; the kcat/Km was 600000 M⁻¹ s⁻¹; the Km is 102 ± 11.8 µM; the kcat turned out to be 59 ± 3 s⁻¹. Besides, in data set [1] (setting [8]), the “Substrate specificity (% 13α-HPOT), from kcat/Km” value was found to be 22%; the kcat/Km came out at 3.35e+07 M⁻¹ s⁻¹; the Km is 14.7 ± 1.9 µM; the kcat stood at 493 ± 17 s⁻¹. Besides, in data set [1], the “Km / affinity, fold change” value turned out to be 10 fold; the “kcat, fold difference (detergent-buffer higher than detergent-free)” value was found to be 6 fold; the “catalytic efficiency (kcat/Km) of detergent-free enzyme as % of enzyme purified without detergent removal” value was 2%; the “kcat as % of kcat with 13α-HPOT” value was determined as 70%.
In the case of `[N-]=[N+]=[N-]` [Azide, azide], in the data set with CYP74C3 [2], the “binding of ligand to CYP74C3” value is “shown to bind” and the “Spin state of the haem iron after ligand or detergent binding” value (“Spin state of the haem iron” for short) is given as “Mixture”.
In the case of `c1ccc2[nH]cnc2c1` [BI, benzimidazole], in the data set with CYP74C3 [2], the “binding of ligand to CYP74C3” value is recorded as “shown to bind”.
As for `[C-]#[O+]` [CO, Carbon monoxide], the “Spin state of the haem iron” value with CYP74C3 [2] was “Low”.
In the case of `N#C[S-].[K+]` [KCNS, potassium thiocyanate], in the data set on CYP74C3 [2], the “binding of ligand to CYP74C3” value is on record as “shown to bind” and the “Spin state of the haem iron” value is given as “Mixture”.
For `O=O` [O2, dioxygen], the “binding of ligand to CYP74C3” value with CYP74C3 [2] is “shown to bind”.
In the case of `c1ccncc1` [Pyridine, pyridine], in the data set on CYP74C3 [2], the “binding of ligand to CYP74C3” value is listed as “shown to bind” and the “Spin state of the haem iron” value is on record as “Low”.
On to `c1cscn1` [Thiazole, thiazole], for which, in the data set with CYP74C3 [2], the “binding of ligand to CYP74C3” value is “shown to bind”.
A word on the Kd: it is the free concentration of one partner at which half of the binding sites on the other are occupied at equilibrium, for simple one-to-one binding. A lower Kd goes with higher affinity. “polyoxyethylene 10 tridecyl ether [Emulphogene]”: in the data set with CYP74C3 [3], the “Emulphogene concentration at which detergent-free CYP74C3 could be reactivated” value is recorded as “exceeding 2.6 mM”, the equilibrium dissociation constant (Kd) is 6.9 µM and the “reactivation of detergent-free CYP74C3” value is reported as “No reactivation”. Besides, binding on CYP74A1 [4] was put at a Kd of 10.7 ± 1.7 µM. Besides, in the data set on CYP74C3 [2], the “Spin state of the haem iron” value is on record as “Low”.

B1: CYP74A1: recombinant allene oxide synthase (AOS) from Arabidopsis thaliana (protein, UniProt Q96242 34-518, looked up)
Allene oxide synthase, …: SGSETPDLTVATRTGSKDLPIRNIPGNYGLPIVGPIKDRWDYFYDQGAEEFFKSRIRKYNSTVYRVNMPPGAFIAENPQVVALLDGKSFPVLFDVDKVEKKDLFTGTYMPSTELTGGYRILSYLDPSEPKHEKLKNLLFFLLKSSRNRIFPEFQATYSELFDSLEKELSLKGKADFGGSSDGTAFNFLARAFYGTNPADTKLKADAPGLITKWVLFNLHPLLSIGLPRVIEEPLIHTFSLPPALVKSDYQRLYEFFLESAGEILVEADKLGISREEATHNLLFATCFNTWGGMKILFPNMVKRIGRAGHQVHNRLAEEIRSVIKSNGGELTMGAIEKMELTKSVVYECLRFEPPVTAQYGRAKKDLVIESHDAAFKVKAGEMLYGYQPLATRDPKIFDRADEFVPERFVGEEGEKLLRHVLWSNGPETETPTVGNKQCAGKDFVVLVARLFVIEIFRRYDSFDIEVGTSPLGSSVNFSSLRKASF
In the case of B1, the “Loss of active protein (%)” value in data set [5] (Freeze Drying, +Emulphogene (0.3% w/v)) turned out to be 58.1%; in data set [5] (Freeze Drying, +Triton X-100 (0.2% w/v)), 41.3%; in data set [5] (Freeze Drying, Detergent-free), 2.3%; in data set [5] (Speedvac Drying, +Emulphogene (0.3% w/v)), 83.1%; in data set [5] (Speedvac Drying, Detergent-free) it was 17.6%. In addition, the “fold increase in kcat/Km after reactivation with detergent micelles” value with CYP74A1 [6] came out at 48 fold.
